Assays:
[1] = tested on: MDA-MB-231 (MDA-MB-231/ATCC); experiment: NCI in vitro cancer screen, Breast Cancer; type: cell-based, human; settings: MDA-MB-231
HCT-15 = experiment: NCI in vitro cancer screen, Colon Cancer; type: cell-based, human; settings: HCT-15
EKVX = experiment: NCI in vitro cancer screen, Non-Small Cell Lung Cancer; type: cell-based, human
UO-31 = experiment: NCI in vitro cancer screen, Renal Cancer; type: cell-based, human; settings: UO-31
HL-60 (TB) = experiment: NCI in vitro cancer screen, Leukemia; type: cell-based, human; settings: HL-60 (TB)
RXF-393 = experiment: NCI in vitro cancer screen, Renal Cancer; type: cell-based, human; settings: Homo sapiens, RXF-393
OVCAR-8 = experiment: NCI in vitro cancer screen, Ovarian Cancer; type: cell-based, human; settings: OVCAR-8
RPMI-8226 = experiment: NCI in vitro cancer screen, Leukemia; type: cell-based, human; settings: RPMI-8226
SK-MEL-2 = experiment: NCI in vitro cancer screen, Melanoma; type: cell-based, human; settings: SK-MEL-2
UACC-257 = experiment: NCI in vitro cancer screen, Melanoma; type: cell-based, human; settings: UACC-257
LOX IMVI = experiment: NCI in vitro cancer screen, Melanoma; type: cell-based, human
MOLT-4 = experiment: NCI in vitro cancer screen, Leukemia; type: cell-based, human; settings: MOLT-4
KM12 = experiment: NCI in vitro cancer screen, Colon Cancer; type: cell-based, human; settings: KM12
A498 = experiment: NCI in vitro cancer screen, Renal Cancer; type: cell-based, human; settings: A498
OVCAR-5 = experiment: NCI in vitro cancer screen, Ovarian Cancer; type: cell-based, human; settings: OVCAR-5
SK-MEL-28 = experiment: NCI in vitro cancer screen, Melanoma; type: cell-based, human; settings: SK-MEL-28
OVCAR-4 = experiment: NCI in vitro cancer screen, Ovarian Cancer; type: cell-based, human; settings: OVCAR-4
M14 = experiment: NCI in vitro cancer screen, Melanoma; type: cell-based, human; settings: M14
T-47D = experiment: NCI in vitro cancer screen, Breast Cancer; type: cell-based, human
MCF7 = experiment: NCI in vitro cancer screen, Breast Cancer; type: cell-based, human; settings: MCF7
SN12C = experiment: NCI in vitro cancer screen, Renal Cancer; type: cell-based, human
HT29 = experiment: NCI in vitro cancer screen, Colon Cancer; type: cell-based, human; settings: HT29
PC-3 = experiment: NCI in vitro cancer screen, Prostate Cancer; type: cell-based, human; settings: PC-3
SF-268 = experiment: NCI in vitro cancer screen, CNS Cancer; type: cell-based, human; settings: SF-268
SNB-75 = experiment: NCI in vitro cancer screen, CNS Cancer; type: cell-based, human; settings: SNB-75
HOP-92 = experiment: NCI in vitro cancer screen, Non-Small Cell Lung Cancer; type: cell-based, human; settings: HOP-92
NCI-H322M = experiment: as above; type: cell-based, human
NCI-H522 = experiment: as above; type: cell-based, human; settings: Homo sapiens, NCI-H522
SF-539 = experiment: NCI in vitro cancer screen, CNS Cancer; type: cell-based; settings: SF-539
COLO 205 = experiment: NCI in vitro cancer screen, Colon Cancer; type: cell-based, human; settings: COLO 205
A549/ATCC = experiment: NCI in vitro cancer screen, Non-Small Cell Lung Cancer; type: cell-based, human
[2] = Homo sapiens, read-out: LC50 (the source's name)
[3] = read-out: LC50 (the source's name)

COc1cc(/C=C/c2cc(O)cc(OC)c2CC=C(C)C)ccc1O [USYDS1, (E)-2-(3-methyl-2-buten-1-yl)-4′,5-dihydroxy-3,3′-dimethoxystilbene]
GI50 ([1]; Homo sapiens): 0.15 µM | CC50 [1, 2]: 61.2 µM | TGI [1]: 2.43 µM | TGI (HCT-15): 16.1 µM | GI50 (HCT-15; Homo sapiens): 0.05 µM | CC50 (HCT-15; [2]): > 100 µM | TGI (EKVX): 24.3 µM | GI50 (EKVX; Homo sapiens): 10.8 µM | CC50 (EKVX; [2]): 54.4 µM | GI50 (UO-31; Homo sapiens): 0.25 µM | CC50 (UO-31; [2]): 51.3 µM | TGI (UO-31): 16.0 µM | TGI (HL-60 (TB)): 0.06 µM | GI50 (HL-60 (TB); Homo sapiens): 0.02 µM | CC50 (HL-60 (TB); [2]): 68.9 µM | GI50 (RXF-393): 0.03 µM | CC50 (RXF-393; [3]): 39.1 µM | GI50 (OVCAR-8; Homo sapiens): 0.08 µM | CC50 (OVCAR-8; [2]): 50 µM | TGI (OVCAR-8): 11.7 µM | GI50 (RPMI-8226; Homo sapiens): 0.11 µM | CC50 (RPMI-8226; [2]): > 100 µM | TGI (RPMI-8226): 14.8 µM | GI50 (SK-MEL-2; Homo sapiens): 0.32 µM | LC50 (SK-MEL-2; Homo sapiens): 38 µM | TGI (SK-MEL-2): 10.6 µM | GI50 (UACC-257; Homo sapiens): 2.53 µM | CC50 (UACC-257; [2]): 45.4 µM | TGI (UACC-257): 17.7 µM | TGI (LOX IMVI): 16.2 µM | GI50 (LOX IMVI; Homo sapiens): 0.05 µM | CC50 (LOX IMVI; [2]): 58.8 µM | GI50 (MOLT-4; Homo sapiens): 0.43 µM | CC50 (MOLT-4; [2]): 80.2 µM | TGI (MOLT-4): 12.3 µM | GI50 (KM12; Homo sapiens): 0.32 µM | CC50 (KM12; [2]): 46.7 µM | TGI (KM12): 13.9 µM | TGI (A498): 8.45 µM | GI50 (A498; Homo sapiens): 1.84 µM | CC50 (A498; [2]): 32.2 µM | GI50 (OVCAR-5; Homo sapiens): 6 µM | CC50 (OVCAR-5; [2]): 55.3 µM | TGI (OVCAR-5): 21.4 µM | GI50 (SK-MEL-28; Homo sapiens): 10.9 µM | LC50 (SK-MEL-28; Homo sapiens): 51.7 µM | TGI (SK-MEL-28): 23.8 µM | GI50 (OVCAR-4; Homo sapiens): 0.58 µM | CC50 (OVCAR-4; [2]): 52 µM | TGI (OVCAR-4): 18.4 µM | GI50 (M14; Homo sapiens): 0.04 µM | CC50 (M14; [2]): 44 µM | TGI (M14): 13.9 µM | TGI (T-47D): 19.8 µM | GI50 (T-47D; Homo sapiens, T47D): 0.72 µM | CC50 (T-47D; Homo sapiens, T47D, read-out: LC50 (the source's name)): 67.4 µM | GI50 (MCF7; Homo sapiens): 0.23 µM | CC50 (MCF7; [2]): 52.9 µM | TGI (MCF7): 13.0 µM | TGI (SN12C): 16.9 µM | GI50 (SN12C; Homo sapiens): 0.99 µM | CC50 (SN12C; [2]): 54.2 µM | TGI (HT29): 15.3 µM | GI50 (HT29; Homo sapiens, HT-29): 4.73 µM | CC50 (HT29; Homo sapiens, HT-29, read-out: LC50 (the source's name)): 44.4 µM | GI50 (PC-3; Homo sapiens): 0.42 µM | CC50 (PC-3; [2]): 47.9 µM | TGI (PC-3): 16.1 µM | GI50 (SF-268; Homo sapiens): 0.25 µM | CC50 (SF-268; [2]): 50.2 µM | TGI (SF-268): 14.1 µM | GI50 (SNB-75; Homo sapiens): 0.03 µM | CC50 (SNB-75; [2]): 72 µM | TGI (SNB-75): 20.2 µM | TGI (HOP-92): 12.3 µM | GI50 (HOP-92; Homo sapiens): 0.06 µM | CC50 (HOP-92; [2]): 39.6 µM | TGI (NCI-H322M): 25.7 µM | GI50 (NCI-H322M; Homo sapiens): 11.8 µM | LC50 (50% lethal concentration) (NCI-H322M; Homo sapiens): 55.9 µM | GI50 (NCI-H522): 0.02 µM | CC50 (NCI-H522; [3]): 44.8 µM | GI50 (SF-539; Homo sapiens): 0.04 µM | CC50 (SF-539; [2]): 48.6 µM | TGI (SF-539): 14.4 µM | TGI (COLO 205): 16.1 µM | GI50 (COLO 205; Homo sapiens): 3.86 µM | CC50 (COLO 205; [2]): 42.6 µM | TGI (A549/ATCC): 11.3 µM | GI50 (A549/ATCC; Homo sapiens): 0.5 µM | CC50 (A549/ATCC; [2]): 40.3 µM
